Data reported in US20230159527A1, “COMPOUNDS AS BCL-2 INHIBITORS” (Fochon Pharmaceuticals, Ltd., priority 2020, published 2023).

Assays:
Assay type in all cases: cell-based
RS4;11-BCL-2 F104L cells = assay: Cell proliferation assay, engineered RS4;11 cells stably overexpressing BCL-2 F104L (MTS, 168 h); settings: Homo sapiens, read-out: RS4, 11 BCL2-F104L
Method: MTS testing kit was purchased from Promega (Madison, Wis., USA). The RPMI-1640, Fetal bovine serum and Penicillin-Streptomycin were purchased from BI (Biological Industries, Beit Haemek, Israel). Puromycin was purchased from Beyotime (shanghai, China). Dimethyl sulfoxide (DMSO) was purchased from Sigma (St. Louis, Mo., USA). RS4;1l-BCL-2 G101V and RS4;11-BCL-2 F104L cells were cultured in RPM11640 supplemented with 1 ug/mL puromycin, 100 U/mL Penicillin-Streptomycin and 10% FBS.
To investigate whether a compound is able to inhibit the activity of BCL-2 mutation in cells, a mechanism-based assay using engineered cell lines stably overexpressing BCL-2 mutation ([…] and […]) was developed. In this assay, the inhibition of BCL-2 mutation was reflected by the inhibition of cell proliferation of RS4;11-BCL-2 G101V and RS4;11-BCL-2 F104L cells. Cells were plated into 96-well plates at optimized cell density (RS4;11-BCL-2 G101V: 5000 cells/well; RS4;11-BCL-2 F104L: 5000 cells/well). Plates were incubated at 37° C., with 5% CO2 for 4 h. Compounds were serially diluted to the final-concentrations of 10000, 3333.3, 1111.1, 370.4, 123.5, 41.2, 13.7, 4.6 and 1.4 nM and added to the plates. Plates were incubated at 37° C., with 5% CO2 for 168 h. 20 μl MTS was added into each well and the plates were incubated at 37° C., with 5% CO2 exactly for 2 h. The absorbance was measured by a microplate reader at 490 nm. IC50 values were calculated using GraphPad Prism 5.0 software.

Toledo cells = assay: Cell proliferation assay, Toledo cells (MTS, 72 h); settings: Homo sapiens, Toledo cells, MTS, read-out: Toledo IC50
Outline: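 IC50 was derived from 490 nm absorbance after a 2 h MTS step. Before that, compounds at 1.5–10000 nM final (nine points) acted on Toledo cells for 72 h at 37 °C, 5% CO2. Cells were seeded at 30000/well in 10% FBS RPMI-1640 and rested 4 h before dosing.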

DoHH2 cells = assay: Cell proliferation assay, DoHH2 cells (MTS, 120 h); settings: Homo sapiens, DOHH-2
Method: MTS testing kit was purchased from Promega (Madison, Wis., USA). The RPMI-1640, Fetal bovine serum and Penicillin-Streptomycin were purchased from BI (Biological Industries, Beit Haemek, Israel). Dimethyl sulfoxide (DMSO) was purchased from Sigma (St. Louis, Mo., USA). DoHH2 (DSMZ catalog #: ACC47) cells were cultured in RPMI-1640 supplemented with Penicillin-Streptomycin and 10% FBS.
To investigate whether a compound is able to inhibit the activity of BCL-2 in cells, a mechanism-based assay using DoHH2 lines was developed. In this assay, the inhibition of BCL-2 was reflected by the inhibition of cell proliferation of DoHH2 cells. Cells were plated into 96-well plates at the optimized cell density of 5000 cells/well. Plates were incubated at 37° C., with 5% CO2 for 4h. Compounds were serially diluted and added to the plates with the final concentrations of 10000, 3333.3, 1111.1, 370.4, 123.5, 41.2, 13.7, 4.6 and 1.5 nM. Plates were incubated at 37° C., with 5% CO2 for 120 h. 20 μl MTS was added into each well and the plates were incubated at 37° C., with 5% CO2 for exactly 2 h. The absorbance was measured by a microplate reader at 490 nm. IC50 was calculated using GraphPad Prism 5.0 software.

| IC50 (RS4;11-BCL-2 F104L cells) | SMILES | IC50 (Toledo cells) | IC50 (DoHH2 cells) |
| --- | --- | --- | --- |
| 15 nM | CCc1nc2[nH]cc(F)c2cc1Oc1cc(N2CCC3(CC2)CC(N2CCC[C@H]2c2ccccc2C(C)C)C3)ccc1C(=O)NS(=O)(=O)c1cc2c(c([N+](=O)[O-])c1)N[C@@H]([C@H]1CC[C@](C)(O)CC1)CO2 (single isomer, unassigned) [Example D-245, 2-((6-ethyl-3-fluoro-1H-pyrrolo [2,3-b]pyridin-5-yl)oxy)-N-(((S)-3-((1r,4S)-4-hydroxy-4-methylcyclohexyl)-5-nitro-3,4-dihydro-2H-benzo[b][1,4]oxazin-7-yl)sulfonyl)-4-(2-((R or S)-2-(2-isopropylphenyl)pyrrolidin-1-yl)-7-azaspiro[3.5]nonan-7-yl)benzamide] | – | – |
| 11 nM | CO[C@@H](C)COc1nc2[nH]cc(F)c2cc1Oc1cc(N2CCC3(CC2)CN([C@H]2CCC[C@H]2c2ccccc2C(C)C)C3)ccc1C(=O)NS(=O)(=O)c1cc2c(c([N+](=O)[O-])c1)N[C@@H]([C@H]1CC[C@](C)(O)CC1)CO2 (single isomer, unassigned) [Example D-241a, 2-((3-fluoro-6-((S)-2-methoxypropoxy)-1H-pyrrolo[2,3-b]pyridin-5-yl)oxy)-N-((S)-3-((1r,4S)-4-hydroxy-4-methylcyclohexyl)-5-nitro-3,4-dihydro-2H-benzo[b][1,4]oxazin-7-yl)sulfonyl)-4-(2-((1S,2S or 1R,2R)-2-(2-isopropylphenyl)cyclopentyl)-2,7-diazaspiro[3.5]nonan-7-yl)benzamide] | – | – |
| 13 nM | CO[C@@H](C)COc1nc2[nH]cc(F)c2cc1Oc1cc(N2CCC3(CC2)CC(N2CCC[C@H]2c2ccccc2C(C)C)C3)ccc1C(=O)NS(=O)(=O)c1cc2c(c([N+](=O)[O-])c1)N[C@@H]([C@H]1CC[C@](C)(O)CC1)CO2 (single isomer, unassigned) [Example D-243a, 2-((3-fluoro-6-((S)-2-methoxypropoxy)-1H-pyrrolo[2,3-b]pyridin-5-yl)oxy)-N-(((S)-3-((1r,4S)-4-hydroxy-4-methylcyclohexyl)-5-nitro-3,4-dihydro-2H-benzo[b][1,4]oxazin-7-yl)sulfonyl)-4-(2-((R or S)-2-(2-isopropylphenyl)pyrrolidin-1-yl)-7-azaspiro[3.5]nonan-7-yl) benzamide] | – | – |
| 5 nM | CCc1nc2[nH]cc(F)c2cc1Oc1cc(N2CCC3(CC2)CN([C@H]2CCC[C@H]2c2ccccc2C(C)C)C3)ccc1C(=O)NS(=O)(=O)c1cc2c(c([N+](=O)[O-])c1)N[C@@H]([C@H]1CC[C@](C)(O)CC1)CO2 (single isomer, unassigned) [Example D-239, 2-((6-ethyl-3-fluoro-1H-pyrrolo [2,3-b]pyridin-5-yl)oxy)-N-(((S)-3-((1r,4S)-4-hydroxy-4-methylcyclohexyl)-5-nitro-3,4-dihydro-2H-benzo[b][1,4]oxazin-7-yl)sulfonyl)-4-(2-((1S,2S or 1R,2R)-2-(2-isopropylphenyl)cyclopentyl)-2,7-diazaspiro[3.5]nonan-7-yl)benzamide] | – | – |
| 10 nM | CCc1nc2[nH]cc(F)c2cc1Oc1cc(N2CCC3(CC2)CN([C@H]2CCC[C@H]2c2ccccc2C(C)C)C3)ccc1C(=O)NS(=O)(=O)c1ccc(NC[C@H]2CC[C@](C)(O)CC2)c([N+](=O)[O-])c1 (single isomer, unassigned) [Example D-235, 2-((6-ethyl-3-fluoro-1H-pyrrolo [2,3-b]pyridin-5-yl)oxy)-N-((4-(((1r,4r)-4-hydroxy-4-methylcyclohexyl)methyl)amino)-3-nitrophenyl) sulfonyl)-4-(2-((1S,2S or 1R,2R)-2-(2-isopropylphenyl)cyclopentyl)-2,7-diazaspiro[3.5] nonan-7-yl)benzamide] | – | – |
| 20 nM | CO[C@H](C)COc1nc2[nH]cc(F)c2cc1Oc1cc(N2CCC3(CC2)CC(N2CCC[C@H]2c2ccccc2C(C)C)C3)ccc1C(=O)NS(=O)(=O)c1cc2c(c([N+](=O)[O-])c1)N[C@@H]([C@H]1CC[C@](C)(O)CC1)CO2 (single isomer, unassigned) [Example D-243b, 2-((3-fluoro-6-((R)-2-methoxypropoxy)-1H-pyrrolo[2,3-b]pyridin-5-yl)oxy)-N-(((S)-3-((1r,4S)-4-hydroxy-4-methylcyclohexyl)-5-nitro-3,4-dihydro-2H-benzo[b][1,4]oxazin-7-yl)sulfonyl)-4-(2-((R or S)-2-(2-isopropylphenyl)pyrrolidin-1-yl)-7-azaspiro[3.5]nonan-7-yl) benzamide] | – | – |

The remaining lines, values behind:

| SMILES | IC50 (RS4;11-BCL-2 F104L cells) | IC50 (Toledo cells) | IC50 (DoHH2 cells) |
| --- | --- | --- | --- |
| CO[C@@H](C)COc1nc2[nH]cc(F)c2cc1Oc1cc(N2CCC3(CC2)CN([C@H]2CCC[C@H]2c2ccccc2C(C)C)C3)ccc1C(=O)NS(=O)(=O)c1cnc(NC[C@H]2CC[C@](C)(O)CC2)c([N+](=O)[O-])c1 (single isomer, unassigned) [Example A-155a, 2-((3-fluoro-6-((S)-2-methoxypropoxy)-1H-pyrrolo[2,3-b]pyridin-5-yl)oxy)-N-((6-(((1r,4r)-4-hydroxy-4-methylcyclohexyl)methyl)amino)-5-nitropyridin-3-yl)sulfonyl)-4-(2-((1S,2S or 1R,2R)-2-(2-isopropylphenyl)cyclo-pentyl)-2,7-diazaspiro[3.5]nonan-7-yl) benzamide] | 27 nM | – | – |
| CC(C)c1ccccc1[C@@H]1CCC[C@@H]1N1CC2(CCN(c3ccc(C(=O)NS(=O)(=O)c4cnc(NC[C@H]5CC[C@](C)(O)CC5)c([N+](=O)[O-])c4)c(Oc4cnc5[nH]ccc5c4)c3)CC2)C1 (single isomer, unassigned) [Example A-136, 2-((1H-pyrrolo[2,3-b]pyridin-5-yl)oxy)-N-((6-((((1r,4r)-4-hydroxy-4-methylcyclohexyl)methyl)amino)-5-nitropyridin-3-yl)sulfonyl)-4-(2-((1R,2R or 1S, 2S)-2-(2-isopropylphenyl)cyclo-pentyl)-2,7-diazaspiro[3.5]nonan-7-yl)benzamide] | – | 1 nM | ≤ 1 nM |
| CCc1nc2[nH]cc(F)c2cc1Oc1cc(N2CCC3(CC2)CN([C@H]2CCC[C@H]2c2ccccc2C(C)C)C3)ccc1C(=O)NS(=O)(=O)c1cnc(NC[C@H]2CC[C@](C)(O)CC2)c([N+](=O)[O-])c1 (single isomer, unassigned) [Example A-157, 2-((6-ethyl-3-fluoro-1H-pyrrolo[2,3-b]pyridin-5-yl)oxy)-N-((6-((((1r,4r) 4-hydroxy-4-methylcyclohexyl)methyl)amino)-5-nitropyridin-3-yl)sulfonyl)-4-(2-((1S,2S or 1R,2R)-2-(2-isopropylphenyl)cyclo-pentyl)-2,7-diazaspiro[3.5]nonan-7-yl) benzamide] | 23 nM | – | – |
| CC(C)c1ccccc1[C@@H]1COCCN1C1CC2(CCN(c3ccc(C(=O)NS(=O)(=O)c4cnc(NC[C@H]5CC[C@](C)(O)CC5)c([N+](=O)[O-])c4)c(Oc4cnc5[nH]cc(F)c5c4)c3)CC2)C1 (single isomer, unassigned) [Example A-128, 2-((3-fluoro-1H-pyrrolo[2,3-b]pyridin-5-yl)oxy)-N-((6-((((1r,4r)-4-hydroxy-4-methylcyclohexyl)methyl)amino)-5-nitropyridin-3-yl)sulfonyl)-4-(2-((R or S)-3-(2-isopropylphenyl)morpholino)-7-azaspiro[3.5]nonan-7-yl) benzamide] | – | 1 nM | ≤ 1 nM |
| O=C(NS(=O)(=O)c1cc2c(c([N+](=O)[O-])c1)O[C@H](CN1CCOCC1)CO2)c1ccc(N2CCC3(CC2)CC(N2CCOC[C@H]2c2ccccc2C2CC2)C3)cc1Oc1cnc2[nH]ccc2c1 (single isomer, unassigned) [Example E-41, 2-((1H-pyrrolo [2,3-b]pyridin-5-yl)oxy)-4-(2-((R or S)-3-(2-cyclopropylphenyl)morpholino)-7-azaspiro[3.5]nonan-7-yl)-N-(((R)-2-(morpholinomethyl)-8-nitro-2,3-dihydrobenzo [b][1,4]dioxin-6-yl)sulfonyl) benzamide] | – | 1 nM | ≤ 1 nM |
